In patent publication US8017784B2, “Substituted sulfoxide compounds, methods for preparing the same and use thereof” (Livzon Pharmaceutical Group, Inc., priority 2005, dated 2011):

Tested on: Acute Gastric Ulcer of Rats
Assay: Effect on acute gastric ulcer of rats (pyloric ligation method, Shay method)
Type: in vivo
Details: for Average Volume of Gastric Juice / Index of Ulcer (sum of the long diameter of each ulcer) / Inhibition Ratio of gastric juice / Inhibition Ratio of index of ulcer: SD female rats, 3 mg/kg via duodenum; for Average Volume of Gastric Juice / Index of Ulcer (sum of the long diameter of each ulcer): 6 hours after dosing; for Inhibition Ratio of gastric juice / Inhibition Ratio of index of ulcer: 6 hours, versus control group; for Inhibition of gastric juice secretion and ulceration compared with racemate: rats, result in words
Description: The effect of optically pure (+)/(−)-5-(1H-pyrrol-1-yl)-2-[[(4-methoxy-3-methyl-2-pyridyl)-methyl]sulfinyl]-1-hydro-benzimidazole on the acute gastric ulcer of rats were investigated using a pyloric ligation method (Shay method), and the results were compared with a normal control group and a racemate group. The specific test methods were as follows.
Twenty-six healthy SD female adult rats were divided randomly into 4 groups and fasted, except water, for 24 hours. Each rat was then anesthesized with 30 mg/kg Sodium Pentobarbital and subjected to pyloric ligation. After that, 3 groups of rats (treated group) were administered immediately via dodecadactylon with a racemate, a levo-enantiomer and a dextro-enantiomer of 5-(1H-pyrrol-1-yl)-2-[[(4-methoxy-3-methyl-2-pyridyl)-methyl]sulfinyl]-1-hydro-benzimidazole, respectively, at a dose of 3 mg/kg, and the other group (control group) is administered with the same volume of solvent.
All rats were then fasted including water for 6 hours followed by being sacrificed. The stomach was removed from rats after cardiac orifice ligation, and the volume of gastric juice was collected. After being fixed with 10% formalin solution, the stomach was incised along the greater curvature of stomach, the gastric wall was unwraped, and the degree and number of ulcers of the gastric mucosa were observed visually. Sum of the long diameter of each ulcer was defined as the index of ulcer. All rats were housed in metabolic cages during the test.

| Compound | Average Volume of Gastric Juice (3 mg/kg) [mL] | Index of Ulcer (sum of the long diameter of each ulcer) (3 mg/kg) [mm] | Inhibition Ratio of gastric juice (3 mg/kg) [%] | Inhibition Ratio of index of ulcer (3 mg/kg) [%] | Inhibition Ratio of index of ulcer [%] | Inhibition of gastric juice secretion and ulceration compared with racemate (3 mg/kg) |
| --- | --- | --- | --- | --- | --- | --- |
| COc1ccnc(C[S+]([O-])c2nc3cc(-n4cccc4)ccc3[nH]2)c1C (racemic) [Racemate, 5-(1H-pyrrol-1-yl)-2-[[(4-methoxy-3-methyl-2-pyridyl)-methyl]sulfinyl]-1-hydro-benzimidazole, reference compound] | 3.2 ± 2.3 | 14 ± 8 | 30.8 | 41.8 |  |  |
| COc1ccnc(C[S+]([O-])c2nc3cc(-n4cccc4)ccc3[nH]2)c1C (single isomer, unassigned; (-)) [Levo-enantiomer, (−)-5-(1H-pyrrol-1-yl)-2-[[(4-methoxy-3-methyl-2-pyridyl)-methyl]sulfinyl]-1-hydro-benzimidazole] | 1.4 ± 1.0 | 6 ± 6 | 68.3 |  | 75.6 | more effective in inhibiting gastric juice secretion and ulceration as compared with their racemate |
| COc1ccnc(C[S+]([O-])c2nc3cc(-n4cccc4)ccc3[nH]2)c1C (single isomer, unassigned; (+)) [Dextro-enantiomer, (+)-5-(1H-pyrrol-1-yl)-2-[[(4-methoxy-3-methyl-2-pyridyl)-methyl]sulfinyl]-1-hydro-benzimidazole] | 2.6 ± 1.1 | 6 ± 7 | 43.2 |  | 75.6 | more effective in inhibiting gastric juice secretion and ulceration as compared with their racemate |
